{"source": "patent US20090005435A1", "about": "“Novel Compounds, Pharmaceutical Compositions Containing Same, and Methods of Use for Same” (priority 2004, published 2009)", "key": {"[1]": {"system": "fatty acid synthesis in MCF-7 human breast cancer cells", "assay": "[14C]acetate incorporation into total lipids", "type": "cell-based", "settings": "MCF-7 cells", "description": "Measurement of [^14C]acetate Incorporation into Total Lipids and Determination of IC50 of Compounds\nThis assay measures the incorporation of [^14C]acetate into total lipids and is a measure of fatty acid synthesis pathway activity in vitro. It is utilized to measure inhibition of fatty acid synthesis in vitro.\nMCF-7 human breast cancer cells cultured as above, are plated at 5×10^4 cells per well in 24-well plates. Following overnight incubation, the compounds to be tested, solubilized in DMSO, are added at 5, 10, and 20 μg/ml in triplicate, with lower concentrations tested if necessary. DMSO is added to triplicate wells for a vehicle control. C75 is run at 5 and 10 μg/ml in triplicate as positive controls. After 4 hours of incubation, 0.25 μCi of [^14C]acetate (10 μl volume) is added to each well.\nAfter 2 hours of additional incubation, medium is aspirated from the wells and 800 μl of chloroform:methanol (2:1) and 700 μl of 4 mM MgCl2 is added to each well. Contents of each well are transferred to 1.5 Eppendorf tubes, and spun at full-speed for 2 minutes in a high-speed Eppendorf Microcentrifuge 5415D. After removal of the aqueous (upper) layer, an additional 700 μl of chloroform:methanol (2:1) and 500 μl of 4 mM MgCl2 are added to each tube and then centrifuged for 1 minutes as above. […] Once dried, 3 ml of scintillant (APB #NBC5104) is added and vials are counted for ^14C. […]"}, "CPT-1": {"biological_target": "T1, CPT-1 (Homo sapiens, UniProt P50416)", "T1 construct": "This assay uses permeabilized cells to measure the transfer of [methyl-^14C]L-carnitine; endogenous in cells; host or cells: MCF-7 cells, digitonin-permeabilized", "T1 sequence (P50416 1-773)": "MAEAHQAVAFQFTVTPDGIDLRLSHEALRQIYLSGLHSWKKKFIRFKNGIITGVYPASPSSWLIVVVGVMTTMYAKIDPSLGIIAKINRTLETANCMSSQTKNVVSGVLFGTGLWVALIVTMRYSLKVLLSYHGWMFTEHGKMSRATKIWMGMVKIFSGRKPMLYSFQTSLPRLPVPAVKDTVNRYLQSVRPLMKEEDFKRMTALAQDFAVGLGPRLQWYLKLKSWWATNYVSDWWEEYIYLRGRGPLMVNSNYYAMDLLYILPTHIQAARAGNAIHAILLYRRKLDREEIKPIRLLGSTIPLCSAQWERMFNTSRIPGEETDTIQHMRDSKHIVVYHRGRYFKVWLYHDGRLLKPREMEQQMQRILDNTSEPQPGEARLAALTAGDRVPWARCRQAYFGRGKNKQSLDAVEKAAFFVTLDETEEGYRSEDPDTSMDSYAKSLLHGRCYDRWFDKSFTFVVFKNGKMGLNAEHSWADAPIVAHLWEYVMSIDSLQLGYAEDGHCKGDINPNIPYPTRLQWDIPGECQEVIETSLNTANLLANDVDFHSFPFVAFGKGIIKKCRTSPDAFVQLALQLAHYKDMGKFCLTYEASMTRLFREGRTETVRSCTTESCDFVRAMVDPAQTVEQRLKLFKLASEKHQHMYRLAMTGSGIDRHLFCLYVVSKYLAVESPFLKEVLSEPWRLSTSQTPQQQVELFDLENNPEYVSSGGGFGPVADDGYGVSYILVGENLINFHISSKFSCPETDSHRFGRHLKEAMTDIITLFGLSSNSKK", "assay": "Carnitine palmitoyltransferase-1 (CPT-1) assay in permeabilized MCF-7 cells", "type": "cell-based", "settings": "at 20 ug/ml", "description": "Carnitine Palmitoyltransferase-1 (CPT-1) Assay\nCPT-1 catalyzes the ATP dependent transfer of long-chain fatty acids from acyl-CoA to acyl-carnitine that is inhibited by malonyl-CoA. As CPT-1 requires the mitochondrial membrane for activity, enzyme activity is measured in permeabilized cells or mitochondria. This assay uses permeabilized cells to measure the transfer of [methyl-^14C]L-carnitine to the organically soluble acyl-carnitine deriviative.\nMCF-7 cells are plated in DMEM with 10% fetal bovine serum at 10^6 cells in 24-well plates in triplicate for controls, drugs, and malonyl-CoA. Two hours before commencing the assay, drugs are added at the indicated concentrations made from stock solutions at 10 mg/ml in DMSO, vehicle controls consist of DMSO without drug. Since malonyl-CoA cannot enter intact cells, it is only added in the assay buffer to cells that have not been preincubated with drugs. Following overnight incubation at 37° C., the medium is removed and replaced with 700 μl of assay buffer consisting of: 50 mM imidazole, 70 mM KCl, 80 mM sucrose, 1 mM EGTA, 2 mM MgCl2, 1 mM DTT, 1 mM KCN, 1 mM ATP, 0.1% fatty acid free bovine serum albumin, 70 μM palmitoyl-CoA, 0.25 μCi [methyl-^14C]L-carnitine, 40 μg digitonin with drug, DMSO vehicle control, or 20 μM malonyl-CoA. […] The butanol phase is counted by liquid scintillation and represents the acylcarnitine derivative."}}, "data": [{"smiles": "C=CCC1(CC=C)C(=O)SC(C)(CCCCCCCC)C1=O", "note": "(racemic) [Compound 4, 3,3-Diallyl-5-methyl-5-octyl-thiophene-2,4-dione]", "values": [{"measurement": "14C (IC50)", "setting": "[1]", "result": "Neg"}, {"measurement": "CPT I Stim", "setting": "CPT-1", "result": "125% of control"}]}]}
